A value given as a limit tells only on which side of the number the result lay.

The experiment deals with muscle progenitors derived from DMD hiPSC. The experiment can be described thus: Myotube assay: total myotube area per well (alpha-actinin staining). It is filed as cell-based, human. The note with it: Homo sapiens, Myotube, 72 h, DMD or WT cell source not given; for Emax: efficacy, MA = normalized Myotube Area, 3 days incubation; for EC50: myogenic activity, half-maximal generation of myotubes, 10 points dose-response 1.5 nM to 30 µM, 3 days. Here is the method:
An in vitro assay for assessing the efficacy of compounds for use in treating, ameliorating, delaying, curing and/or preventing a disease or condition associated with muscle cells and/or satellite cells is described in example 78. Herein, the generation of myotubes and satellite cells after adding a compound to a myotube assay workflow is assessed. Said myotube assay workflow is derived from wild-type or DMD human induced pluripotent stem cells (WT hiPSC or DMD hiPSC). Before the addition of said compound, the assay comprises satellite-like cells, but no significant amount of myotubes.
The efficacy of said compound for use in treating, ameliorating, delaying, curing and/or preventing a disease or condition associated with muscle cells and/or satellite cells is positively correlated with the generation of myotubes (i.e. the increase of the area occupied by myotubes on the assay) and/or satellite cells (i.e. the increase of the number of satellite cells) in the assay after adding said compound. The generation of myotubes by the addition of said compound is expressed as the EC50 value, the concentration of said compound that corresponds with the half-maximal generation of myotubes, and the MA (normalized myotube area) value, the normalized area occupied by generated myotubes on the assay. […] Since muscle cells are formed from myotubes during myogenesis, the generation of myotubes in the assay is a good indicator of the ability of said compound to induce the formation of functional muscle cells in vivo. The number of satellite cells is measured as the percentage of Pax7 positive cells, relative to the total number of cells in the assay, as shown in Figure 3. The percentage of Pax7 is a good indicator of the ability of said compound to induce the formation of satellite cells which are able to play a role in muscle repair and regeneration in vivo.
DMD human induced pluripotent stem cells (hereafter "DMD hiPSC"), generated from the NCRM-1 hiPSC WT cell line by gene editing, or WT human induced pluripotent stem cells (hereafter "WT hiPSC"), being NCRM-1 hiPSC wt cell line, have been differentiated according to Chal et al. 2015, 2016, to produce muscle progenitors (hereafter "hMP"). The hMP population contains satellite-like cells (i.e Pax7-positive cells) and satellite cells' progenies (i.e. Myogenin-positive cells).
Figure 1 provides an example of a Myotube assay workflow. At day 0, hMP are thawed and 3.1 million cells are plated into a T75-flask coated with hESC-qualified Matrigel™ (Corning) in SkGM proliferating medium (PromoCells), supplemented with 5 µM Y-27632 (Tocris Bioscience). On day 2, SkGM proliferating medium is refreshed. On day 4, hMP are harvested and transferred into a 384-well plate coated with collagen type I at a density of 3500 cells/well in a DMEM-based medium, containing 5% of knockout serum replacement (Gibco), 1% PenStrep (Gibco), 1% MEM NEAA (Gibco) and 0.1 mM 2-mercaptoethanol (Gibco) (hereafter "K5 medium") and 5 µM Y-27632. Compounds to be tested are then added in the medium and incubated for 3 days at 37°C. On day 7, cells are fixed and immunostained. For example, myotubes (alpha-actinin staining) and satellite-like (Pax7 staining) cells can be analyzed for total myotube area per well or Pax7-positive cell quantification.
DMD hMP were put in the Myotube assay according to the workflow described in Example 2.1. In particular, compound (i) was added at concentrations ranging from 1.5 nM to 30 µM, starting from day 4. hMP were cultivated for three more days in presence of compound (i), then fixed and analyzed for quantification of total myotube area per well. Duplicates of each condition were averaged.

Turning to `CSc1cc(Oc2ncnc3[nH]c(=O)cnc23)ccc1NC(=O)Nc1cc(C(C)(C)C)nn1-c1ccccc1` [(bv), 1-(3-(tert-butyl)-1-phenyl-1H-pyrazol-5-yl)-3-(2-(methylthio)-4-((7-oxo-7,8-dihydropteridin-4-yl)oxy)phenyl)urea], the Emax is at least 75% and the EC50 is at least 5 µM.

`CSc1cc(Oc2ccnc3[nH]c(=O)cnc23)ccc1NC(=O)Nc1cc(C(C)(C)C)no1` [(bx), 1-(3-(tert-butyl)isoxazol-5-yl)-3-(2-(methylthio)-4-((3-oxo-3,4-dihydropyrido[2,3-b]pyrazin-8-yl)oxy)phenyl)urea] had an Emax of at least 75% and an EC50 of 0.5 to 1 µM.

The compound `CSc1cc(Oc2ccnc3c2CCC(=O)N3)ccc1NC(=O)Nc1cc(C(C)(C)C)nn1-c1ccc(C)cc1` [(by), 1-(3-(tert-butyl)-1-(p-tolyl)-1H-pyrazol-5-yl)-3-(2-(methylthio)-4-((7-oxo-5,6,7,8-tetrahydro-1,8-naphthyridin-4-yl)oxy)phenyl)urea] returned an Emax of at least 75% and an EC50 below 0.5 µM.

`CSc1cc(Oc2ccnc3c2CCC(=O)N3)ccc1NC(=O)Nc1cc(C(C)(C)C)nn1-c1cccc(Cl)c1` [(bz), 1-(3-(tert-butyl)-1-(3-chlorophenyl)-1H-pyrazol-5-yl)-3-(2-(methylthio)-4-((7-oxo-5,6,7,8-tetrahydro-1,8-naphthyridin-4-yl)oxy)phenyl)urea] came in with an Emax of at least 75% and a concentration giving a half-maximal response (EC50) below 0.5 µM.

Regarding `CCC(C)c1cc(NC(=O)Nc2ccc(Oc3ccnc4[nH]c(=O)cnc34)cc2F)n(-c2ccccc2)n1` (centres unmarked) [(c), 1-(3-(sec-butyl)-1-phenyl-1 H-pyrazol-5-yl)-3-(2-fluoro-4-((3-oxo-3,4-dihydropyrido[2,3-b]pyrazin-8-yl)oxy)phenyl)urea], the Emax is 50 to 75% and the EC50 was at least 5 µM.

Compound `CSc1cc(Oc2ccnc3[nH]c(=O)cnc23)ccc1NC(=O)Nc1nc(C(C)(C)C)cs1` [(ca), 1-(4-(tert-butyl)thiazol-2-yl)-3-(2-(methylthio)-4-((3-oxo-3,4-dihydropyrido[2,3-b]pyrazin-8-yl)oxy)phenyl)urea] came in with a maximal effect (Emax) of at least 75% and a 50% effective concentration (EC50) of at least 5 µM.

Compound `CSc1cc(Oc2ccnc3c2CCC(=O)N3)ccc1NC(=O)Nc1ncc(C(C)(C)C)s1` [(cb), 1-(5-(tert-butyl)thiazol-2-yl)-3-(2-(methylthio)-4-((7-oxo-5,6,7,8-tetrahydro-1,8-naphthyridin-4-yl)oxy)phenyl)urea] gave an Emax of at least 75% and an EC50 below 0.5 µM.

As for `CSc1cc(Oc2ccnc3[nH]c(=O)cnc23)ccc1NC(=O)Nc1cc(C(C)(C)C)nn1-c1ccc(C#N)cc1` [(cc), 1-(3-(tert-butyl)-1-(4-cyanophenyl)-1H-pyrazol-5-yl)-3-(2-(methylthio)-4-((3-oxo-3,4-dihydropyrido[2,3-b]pyrazin-8-yl)oxy)phenyl)urea], the Emax is at least 75% and the EC50 is below 0.5 µM.

For `CSc1cc(Oc2ccnc3[nH]c(=O)cnc23)ccc1NC(=O)Nc1cc(C(C)(C)C)nn1-c1ccc(C)c(C)c1` [(cd), 1-(3-(tert-butyl)-1-(3,4-dimethylphenyl)-1H-pyrazol-5-yl)-3-(2-(methylthio)-4-((3-oxo-3,4-dihydropyrido[2,3-b]pyrazin-8-yl)oxy)phenyl)urea], the maximum response (Emax) is at least 75% and the concentration giving a half-maximal response (EC50) is below 0.5 µM.

`CSc1cc(Oc2ccnc3[nH]c(=O)cnc23)ccc1NC(=O)Nc1cc(C(C)(C)C)nn1-c1ccc(OCCN2CCCCC2)cc1` [(ce), 1-(3-(tert-butyl)-1-(4-(2-(piperidin-1-yl)ethoxy)phenyl)-1H-pyrazol-5-yl)-3-(2-(methylthio)-4-((3-oxo-3,4-dihydropyrido[2,3-b]pyrazin-8-yl)oxy)phenyl)urea] displayed a maximal effect (Emax) of at least 75% and an EC50 below 0.5 µM.

As a reminder, the Emax is the greatest response seen or fitted, relative to the assay's reference. For orientation: EC50 means the concentration at which the effect is half-maximal. Low readings indicate higher potency in that assay, high ones lower potency in that assay.

Values taken from EP4029501A1, “COMBINATION OF POLYAROMATIC UREA DERIVATIVES AND GLUCOCORTICOID OR HDAC INHIBITOR FOR THE TREATMENT OF DISEASES OR CONDITIONS ASSOCIATED WITH MUSCLE CELLS AND/OR SATELLITE CELLS” (Anagenesis Biotechnologies, priority 2021, dated 2022).
